In patent publication US20110105393A1, “METHODS FOR PROMOTING STEM CELL PROLIFERATION AND SURVIVAL” (priority 2007, published 2011):

Assays:
mTOR = mTOR phosphorylation in NSC cultures (Western blot); assay type: cell-based, mouse
Experimental: (§1) Cell culture: E13.5 cortical embryonic mouse CNS stem cells were grown as previously described (Johe, et al., Genes Dev 10, 3129-40, 1996). Cells were expanded in serum-free DMEM/F12 medium with N2 supplement and FGF2 (20 ng/ml) for 5 days under 5% oxygen conditions and were re-plated fresh or from frozen stocks at 1,000-10,000 cells per cm^2. FGF2 was included throughout the studies, unless otherwise stated. Adult rat (3-6 months old) or adult mouse (2-4 months old) SVZ NSC cultures were grown in the same medium as the fetal cultures.
Fetal NSCs in culture express Ang-1, and treatment (2 days) with Dll4 maintained it whereas CNTF reduced it. Ang-2 expression was maintained under these conditions. […] Ang-2 induced mTOR and STAT3-S727 phosphorylation, unlike Ang-1 (FIG. 2a). Ang-1, however, induced Akt phosphorylation.
Three characterized Tie-2 receptor antibodies were used to determine if the Tie-2 receptor was expressed in the immature neural precursor cells found in the SVZ of the adult brain. When ligand is bound, the Tie-2 receptor becomes phosphorylated. An antibody that recognizes the activated receptor (RnD Systems, AF2720) and another antibody that binds to a distinct site (Santa Cruz, sc-324) identified many positive cells in the subventricular zone of the adult rat brain. In regions that were more distant from the ventricle, Tie-2 was expressed predominantly on blood vessels and endothelial cells reacted with antibodies against the activated receptor. Precursor cells that proliferate in vitro can be readily derived from the fetal and adult brain. The homogeneity of these cell populations in attached culture and their potential to generate neurons and glia is supported by clonal analysis. […] This colony number assay measured the survival of precursor cells that could differentiate into neurons and glia (See, Table 1).

Hes3 = Hes3 protein immuno-staining in fetal NSC cultures; assay type: cell-based, mouse; details: 2 day treatment
Experimental: as §1
Hes3 mRNA is present in fetal NSC cultures under conditions that support their self-renewal but CNTF-induced differentiation (Bonni, A. et al., Science 278, 477-83, 1997; Rajan & McKay, J Neurosci 18, 3620-9, 1998): downregulates Hes3 message (Androutsellis-Theotokis, A. et al., Nature 442, 823-6, 2006). Knockout studies have shown a role of Hes3 in self-renewal (Hatakeyama, J. et al., Development 131, 5539-50, 2004). It was investigated if Hes3 mediates stem cell functions in vitro to assess its use as a functional NSC marker. Fetal (E13.5) cortical tissue was dissociated and magnetic sorting was used to isolate a cell population that expressed AC133, an established marker of NSCs (Uchida, N. et al., Proc Natl Acad Sci USA 97, 14720-5, 2000). […]

Notch receptor = Notch receptor cleavage (activation) in NSC cultures; assay type: cell-based, mouse
Experimental: as §1
Pharmacological treatments: Unless otherwise stated, the following concentrations were used: Dll4 and Ang-2 (in vitro, 500 ng/ml; in vivo 12.5 μg as a single injection), FGF2 (in vitro, 20 ng/ml), JAK inhibitor (in vitro, 200 nM; in vivo, 250 ng as a single injection), insulin (in vitro, 25 μg/ml; in vivo, 40 μg as a single injection), DAPT (1 μM), Fluorogold (0.5 μg). For the survival assays, compounds were added daily and Notch ligands every 2 days for the duration of the experiment. For the effects of kinase inhibitors on Notch activation, cells were pre-incubated for 1 h prior to Notch activation.
It was previously shown that in NSCs Notch activation leads to rapid phosphorylation of Akt (Androutsellis-Theotokis, A. et al., Nature 442, 823-6, 2006), a mediator of insulin signalling (Cantley, Science 296, 1655-7, 2002). […] Activation of the Notch receptor by addition of insulin or Dll4 was inhibited by DAPT, a γ-secretase inhibitor that blocks Notch cleavage. […] Insulin maintained STAT3-Ser727 phosphorylation levels, and acutely (1-h) induced it following a 16-h insulin withdrawal phase (FIG. 1c).

Ang-2: human angiopoietin-2 (623-AN) from R&D; antagonist for angiopoietin-1 at Tie2
mTOR phosphorylation (mTOR; NSC cultures, 0.5 μg/ml (FIG. 2a, Example 3)): induced
effect on mTOR (mTOR; Western blots, fetal neural cells (FIG. 10a, Example 9)): no effect
pathology associated with the 6OHDA lesion (single intraventricular injection 2 weeks after lesion): hemorrhage and an enlarged ventricle
risk of bleeding (summary of in vivo treatments): increases the risk of bleeding

Dll4: Notch ligand Delta-like 4; mouse Dll4 (1389-D4) from R&D
Hes3 protein expression (Hes3): maintained

insulin: insulin (Sigma, 19278), growth factor
Notch activation (Notch receptor; acute (1 h) treatment after insulin withdrawal for 2 days): induced Notch activation
cleavage (activation) of the Notch receptor (Notch receptor; treatment of NSC cultures): induced cleavage
